Key:
Format in all cases: cell-based
LOX IMVI = experiment: Cytotoxicity against human LOXIMVI cells assessed as effect on cell growth at 10 uM incubated for 48 hrs by sulforhodamine B assay
OVCAR-4 = experiment: Cytotoxicity against human OVCAR4 cells assessed as effect on cell growth at 10 uM incubated for 48 hrs by sulforhodamine B assay; details: ovcar-4, 48 h
NCI-H23 = experiment: Cytotoxicity against human NCI-H23 cells assessed as effect on cell growth at 10 uM incubated for 48 hrs by sulforhodamine B assay; details: nci-h23, 48 h
OVCAR-8 = experiment: Cytotoxicity against human OVCAR8 cells assessed as effect on cell growth at 10 uM incubated for 48 hrs by sulforhodamine B assay; details: ovcar-8, 48 h
SNB-75 = experiment: Cytotoxicity against human SNB75 cells assessed as effect on cell growth at 10 uM incubated for 48 hrs by sulforhodamine B assay; details: snb-75, 48 h
RPMI-8226 = experiment: Cytotoxicity against human RPMI8226 cells assessed as effect on cell growth at 10 uM incubated for 48 hrs by sulforhodamine B assay; details: rpmi-8226, 48 h
NCI-H522 = experiment: Cytotoxicity against human NCI-H522 cells assessed as effect on cell growth at 10 uM incubated for 48 hrs by sulforhodamine B assay; details: nci-h522, 48 h
SNB-19 = experiment: Cytotoxicity against human SNB19 cells assessed as effect on cell growth at 10 uM incubated for 48 hrs by sulforhodamine B assay; details: snb-19, 48 h
BT-549 = experiment: Cytotoxicity against human BT549 cells assessed as effect on cell growth at 10 uM incubated for 48 hrs by sulforhodamine B assay; details: bt-549, 48 h
MOLT-4 = experiment: Cytotoxicity against human MOLT4 cells assessed as effect on cell growth at 10 uM incubated for 48 hrs by sulforhodamine B assay; details: molt-4, 48 h
HT-29 = experiment: Cytotoxicity against human HT-29 cells assessed as effect on cell growth at 10 uM incubated for 48 hrs by sulforhodamine B assay; details: ht-29, 48 h
SW-620 = experiment: Cytotoxicity against human SW620 cells assessed as effect on cell growth at 10 uM incubated for 48 hrs by sulforhodamine B assay; details: sw-620, 48 h
IGROV-1 = experiment: Cytotoxicity against human IGROV1 cells assessed as effect on cell growth at 10 uM incubated for 48 hrs by sulforhodamine B assay; details: igrov-1, 48 h
SK-OV-3 = experiment: Cytotoxicity against human SKOV3 cells assessed as effect on cell growth at 10 uM incubated for 48 hrs by sulforhodamine B assay; details: sk-ov-3, 48 h
SF-295 = experiment: Cytotoxicity against human SF295 cells assessed as effect on cell growth at 10 uM incubated for 48 hrs by sulforhodamine B assay; details: sf-295, 48 h
NCI-H460 = experiment: Cytotoxicity against human NCI-H460 cells assessed as effect on cell growth at 10 uM incubated for 48 hrs by sulforhodamine B assay; details: nci-h460, 48 h
T47D = experiment: Cytotoxicity against human T47D cells assessed as effect on cell growth at 10 uM incubated for 48 hrs by sulforhodamine B assay
SK-MEL-2 = experiment: Cytotoxicity against human SK-MEL-2 cells assessed as effect on cell growth at 10 uM incubated for 48 hrs by sulforhodamine B assay; details: sk-mel-2, 48 h
A549 = experiment: Cytotoxicity against human A549/ATCC cells assessed as effect on cell growth at 10 uM incubated for 48 hrs by sulforhodamine B assay; details: a549, 48 h
KM12 = experiment: Cytotoxicity against human KM12 cells assessed as effect on cell growth at 10 uM incubated for 48 hrs by sulforhodamine B assay; details: km12, 48 h

Measured: Activity

CN1C(=O)C(C)(C)C[C@H]1C(=O)NCc1cccc(C(F)(F)F)c1Cl
Non-Toxic: all assays above

O=C(NCCc1ccccc1)[C@@H]1CCC(=O)N1Cc1ccc(Cl)cc1Cl
Non-Toxic: all assays above

O=C1N[C@H](C(=O)NCc2ccc(Cl)cc2Cl)C/C1=C\N1CCOCC1
Non-Toxic: all assays above

O=C(NCc1ccc(Cl)cc1Cl)[C@@H]1CCC(=O)N1c1ccsc1
Non-Toxic: all assays above

O=C1CCCC(C(=O)NCc2ccc(Cl)cc2Cl)N1 (stereo not given)
Non-Toxic: all assays above

O=C(NCc1ccc(Cl)cc1Cl)[C@@H]1COC(=O)N1c1cccs1
Non-Toxic: all assays above

CN1CCN(/C=C2\C[C@@H](C(=O)NCc3ccc(Cl)cc3Cl)N(c3cccs3)C2=O)CC1
Non-Toxic: all assays above

COc1ccc(CN2C(=O)[C@@H]3C/C(=C\N(C)C)C(=O)N3C2N(C)C)c(OC)c1 (stereo not given in full)
Non-Toxic: all assays above

O=C(NCCc1ccccc1)[C@@H]1CCC(=O)N1Cc1ccc(Br)cc1
Non-Toxic: all assays above
